# Biological target: T1, human MGL from HeLa cells (Homo sapiens, UniProt Q99685)
# T1 construct: combining endogenously expressed MGL from HeLa cells with test compounds; endogenous in cells; host or cells: HeLa cells / cell homogenates
# T1 sequence (Q99685 1-303): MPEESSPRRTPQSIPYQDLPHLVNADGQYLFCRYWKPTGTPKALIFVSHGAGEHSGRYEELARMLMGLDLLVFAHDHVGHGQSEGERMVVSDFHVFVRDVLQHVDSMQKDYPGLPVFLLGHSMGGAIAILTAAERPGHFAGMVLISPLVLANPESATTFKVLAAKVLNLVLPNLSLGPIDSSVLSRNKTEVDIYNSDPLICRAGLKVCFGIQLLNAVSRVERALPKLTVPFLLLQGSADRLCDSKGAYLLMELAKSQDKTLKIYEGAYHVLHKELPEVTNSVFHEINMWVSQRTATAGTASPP
# Test: In vitro MGL activity assay: [glycerol-1,3-3H]-oleyl glycerol cleavage by MGL from HeLa cells
# Type: biochemical
# Details: 300 nM [Glycerol-1,3-3H]-oleyl glycerol, one hour
# Text: MGL is the predominant hydrolase in HeLa cells/cell homogenates.
row,SMILES,IC50 [nM]
1,"C[C@H]1c2nn(C)c(-c3cc(F)c(F)c(F)c3)c2CCN1C(=O)c1ccc2c(c1)CCOC2 [Example 578, [(7S)-2,7-Dimethyl-3-(3,4,5-trifluorophenyl)-5,7-dihydro-4H-pyrazolo[3,4-c]pyridin-6-yl]-isochroman-6-yl-methanone]",27.4
2,"C[C@H]1c2nn(C)c(-c3cc(F)c(F)c(F)c3)c2CCN1C(=O)c1nnn2ccccc12 [Example 441, [(7S)-2,7-Dimethyl-3-(3,4,5-trifluorophenyl)-5,7-dihydro-4H-pyrazolo[3,4-c]pyridin-6-yl]-(triazolo[1,5-a]pyridin-3-yl)methanone]",24.1
3,"C[C@H]1c2nn(C)c(-c3cc(F)c(F)c(F)c3)c2CCN1C(=O)c1c[nH]c2cc(F)ccc12 [Example 358, [(7S)-2,7-Dimethyl-3-(3,4,5-trifluorophenyl)-5,7-dihydro-4H-pyrazolo[3,4-c]pyridin-6-yl]-(6-fluoro-1H-indol-3-yl)methanone]",37.6
4,"C[C@H]1c2nn(C)c(-c3cc(F)c(F)c(F)c3)c2CCN1C(=O)c1cnc2cccnn12 [Example 454, [(7S)-2,7-Dimethyl-3-(3,4,5-trifluorophenyl)-5,7-dihydro-4H-pyrazolo[3,4-c]pyridin-6-yl]-imidazo[1,2-b]pyridazin-3-yl-methanone]",24.9
5,"C[C@H]1c2nn(C)c(-c3cc(F)c(F)c(F)c3)c2CCN1C(=O)c1cnn2c1CCCC2 [Example 552, [(7S)-2,7-Dimethyl-3-(3,4,5-trifluorophenyl)-5,7-dihydro-4H-pyrazolo[3,4-c]pyridin-6-yl]-(4,5,6,7-tetrahydropyrazolo[1,5-a]pyridin-3-yl)methanone]",40.4
6,"C[C@H]1c2nn(C)c(-c3cc(F)c(F)c(F)c3)c2CCN1C(=O)c1ncnc2c1cnn2C [Example 471, [(7S)-2,7-Dimethyl-3-(3,4,5-trifluorophenyl)-5,7-dihydro-4H-pyrazolo[3,4-c]pyridin-6-yl]-(1-methylpyrazolo[3,4-d]pyrimidin-4-yl)methanone]",32.5
7,"Cc1ccnn2nc(C3CC3)c(C(=O)N3CCc4c(nn(C)c4-c4cc(F)c(F)c(F)c4)[C@@H]3C)c12 [Example 444, (2-Cyclopropyl-4-methyl-pyrazolo[1,5-b]pyridazin-3-yl)-[(7S)-2,7-dimethyl-3-(3,4,5-trifluorophenyl)-5,7-dihydro-4H-pyrazolo[3,4-c]pyridin-6-yl]methanone]",2380
8,"C[C@H]1c2nn(C)c(-c3cccc(OC(F)F)c3)c2CCN1C(=O)c1ccc2ncccc2c1 [Example 499, [(7S)-3-[3-(Difluoromethoxy)phenyl]-2,7-dimethyl-5,7-dihydro-4H-pyrazolo[3,4-c]pyridin-6-yl]-(6-quinolyl)methanone]",44.4
9,"Cc1ccc2c(C(=O)N3CCc4c(nn(C)c4-c4cc(F)c(F)c(F)c4)[C@@H]3C)nccc2n1 [Example 487, [(7S)-2,7-Dimethyl-3-(3,4,5-trifluorophenyl)-5,7-dihydro-4H-pyrazolo[3,4-c]pyridin-6-yl]-(2-methyl-1,6-naphthyridin-5-yl)methanone]",35.3
10,"C[C@H]1c2nn(C)c(-c3csc(C(F)(F)F)c3)c2CCN1C(=O)c1ccc2ncccc2c1 [Example 524, [(7S)-2,7-Dimethyl-3-[5-(trifluoromethyl)-3-thienyl]-5,7-dihydro-4H-pyrazolo[3,4-c]pyridin-6-yl]-(6-quinolyl)methanone]",7.23
11,"COc1nccc(C(=O)N2CCc3c(nn(C)c3-c3ccc(F)c(OC(F)F)c3)[C@@H]2C)c1C [Example 595, [(7S)-3-[3-(Difluoromethoxy)-4-fluoro-phenyl]-2,7-dimethyl-5,7-dihydro-4H-pyrazolo[3,4-c]pyridin-6-yl]-(2-methoxy-3-methyl-4-pyridyl)methanone]",106
12,"Cc1nc2ncccn2c1C(=O)N1CCc2c(nn(C)c2-c2cc(F)c(F)c(F)c2)[C@@H]1C [Example 458, [(7S)-2,7-Dimethyl-3-(3,4,5-trifluorophenyl)-5,7-dihydro-4H-pyrazolo[3,4-c]pyridin-6-yl]-(2-methylimidazo[1,2-a]pyrimidin-3-yl)methanone]",163
13,C[C@H]1c2nn(C)c(-c3cc(F)c(F)c(F)c3)c2CCN1C(=O)c1nccc2ncccc12 [Example 486],13.7

# Same assay, conditions: 300 nM [Glycerol-1,3-3H]-oleyl glycerol, one hour incubation
row,SMILES,IC50 [nM]
1,"C[C@H]1c2nn(C)c(-c3cccc(Cl)c3)c2CCN1C(=O)c1cc(Cl)cc(OC(F)(F)F)c1 [Example 116, (S)-(3-Chloro-5-(trifluoromethoxy)phenyl)(3-(3-chlorophenyl)-2,7-dimethyl-2,4,5,7-tetrahydro-6H-pyrazolo[3,4-c]pyridin-6-yl)methanone]",199
2,"Cn1nc2c(c1-c1ccccc1)CCN(C(=O)c1ccc3sccc3c1)C2 [Example 39, Benzo[b]thiophen-5-yl(2-methyl-3-phenyl-2,4,5,7-tetrahydro-6H-pyrazolo[3,4-c]pyridin-6-yl)methanone]",136
3,"COc1cc(Cl)cc(C(=O)N2CCc3c(nn(C)c3-c3ccccc3)C2)c1 [Example 16, (3-Chloro-5-methoxyphenyl)(2-methyl-3-phenyl-2,4,5,7-tetrahydro-6H-pyrazolo[3,4-c]pyridin-6-yl)methanone]",77.9
4,"C[C@H]1c2nn(C)c(-c3cc(F)cc(F)c3)c2CCN1C(=O)c1cc(F)cc(OCCF)c1 [Example 143, (S)-(3-(3,5-Difluorophenyl)-2,7-dimethyl-2,4,5,7-tetrahydro-6H-pyrazolo[3,4-c]pyridin-6-yl)(3-fluoro-5-(2-fluoroethoxy)phenyl)methanone]",4.21
5,"CC1c2nn(C)c(-c3cc(F)cc(F)c3)c2CCN1C(=O)c1ccc2ncccc2c1Cl (stereo not drawn) [Example 163, (5-Chloroquinolin-6-yl)(3-(3,5-difluorophenyl)-2,7-dimethyl-2,4,5,7-tetrahydro-6H-pyrazolo[3,4-c]pyridin-6-yl)methanone]",11.8
6,"COc1ccc(C(=O)N2CCc3c(nn(C)c3-c3ccccc3)C2)cc1OC [Example 9, (3,4-Dimethoxyphenyl)(2-methyl-3-phenyl-2,4,5,7-tetrahydro-6H-pyrazolo[3,4-c]pyridin-6-yl)methanone]",441
7,"C[C@H]1c2nn(C)c(-c3cc(F)c(F)c(F)c3)c2CCN1C(=O)c1cnn(C)c1C(F)(F)F [Example 198, (S)-(2,7-Dimethyl-3-(3,4,5-trifluorophenyl)-2,4,5,7-tetrahydro-6H-pyrazolo[3,4-c]pyridin-6-yl)(1-methyl-5-(trifluoromethyl)-1H-pyrazol-4-yl)methanone]",14
8,"CCC1c2nn(C)c(-c3cccc(F)c3)c2CCN1C(=O)c1ccc2ncccc2c1 (stereo not drawn) [Example 136, (7-Ethyl-3-(3-fluorophenyl)-2-methyl-2,4,5,7-tetrahydro-6H-pyrazolo[3,4-c]pyridin-6-yl)(quinolin-6-yl)methanone]",31.4
9,"C[C@@H]1c2nn(C)c(-c3cccc(Cl)c3)c2CCN1C(=O)c1cnc2ccoc2c1 (single isomer, unassigned) [Example 127]",> 10000
10,"C[C@H]1c2nn(C)c(-c3cc(F)c(F)c(F)c3)c2CCN1C(=O)c1ccc(F)c(-n2cnnc2)c1 [Example 291, [(7S)-2,7-Dimethyl-3-(3,4,5-trifluorophenyl)-5,7-dihydro-4H-pyrazolo[3,4-c]pyridin-6-yl]-[4-fluoro-3-(1,2,4-triazol-4-yl)phenyl]methanone]",1400
11,"C[C@H]1c2nn(C)c(-c3cc(F)c(F)c(F)c3)c2CCN1C(=O)c1ccc(-c2ccn[nH]2)cc1 [Example 269, [(7S)-2,7-Dimethyl-3-(3,4,5-trifluorophenyl)-5,7-dihydro-4H-pyrazolo[3,4-c]pyridin-6-yl]-[4-(1H-pyrazol-5-yl)phenyl]methanone]",8.92
12,"Cc1nc(C(=O)N2CCc3c(nn(C)c3-c3cc(F)c(F)c(F)c3)[C@@H]2C)nn1-c1ccc(F)cc1 [Example 322, [(7S)-2,7-Dimethyl-3-(3,4,5-trifluorophenyl)-5,7-dihydro-4H-pyrazolo[3,4-c]pyridin-6-yl]-[1-(4-fluorophenyl)-5-methyl-1,2,4-triazol-3-yl]methanone]",34.6
13,"C[C@H]1c2nn(C)c(-c3cc(F)c(F)c(F)c3)c2CCN1C(=O)c1cc(F)cc(-n2cnnc2)c1 [Example 292, [(7S)-2,7-Dimethyl-3-(3,4,5-trifluorophenyl)-5,7-dihydro-4H-pyrazolo[3,4-c]pyridin-6-yl]-[3-fluoro-5-(1,2,4-triazol-4-yl)phenyl]methanone]",245
14,"C[C@H]1c2nn(C)c(-c3cc(F)c(F)c(F)c3)c2CCN1C(=O)c1cn(C)c2cccnc12 [Example 220, (S)-(2,7-Dimethyl-3-(3,4,5-trifluorophenyl)-2,4,5,7-tetrahydro-6H-pyrazolo[3,4-c]pyridin-6-yl)(1-methyl-1H-pyrrolo[3,2-b]pyridin-3-yl)methanone]",130
15,"C[C@H]1c2nn(C)c(-c3cc(F)cc(F)c3)c2CCN1C(=O)c1cnc2ccoc2c1 [Example 153, (S)-(3-(3,5-Difluorophenyl)-2,7-dimethyl-2,4,5,7-tetrahydro-6H-pyrazolo[3,4-c]pyridin-6-yl)(furo[3,2-b]pyridin-6-yl)methanone]",15.4
16,"C[C@H]1c2nn(C)c(-c3ccc(C(F)(F)F)o3)c2CCN1C(=O)c1ccc2nccnc2c1 [Example 247, (S)-(2,7-Dimethyl-3-(5-(trifluoromethyl)furan-2-yl)-2,4,5,7-tetrahydro-6H-pyrazolo[3,4-c]pyridin-6-yl)(quinoxalin-6-yl)methanone]",186
17,"Cc1cc(F)cc(-c2c3c(nn2C)[C@H](C)N(C(=O)c2cnn(C)c2C)CC3)c1 [Example 327, (1,5-Dimethylpyrazol-4-yl)-[(7S)-3-(3-fluoro-5-methyl-phenyl)-2,7-dimethyl-5,7-dihydro-4H-pyrazolo[3,4-c]pyridin-6-yl]methanone]",55.3

# From patent US11820766B2, “Monoacylglycerol lipase modulators” (Janssen Pharmaceutica NV, priority 2018, dated 2023)
